Assay results from PubChem BioAssay (NCI).
Values joined by “and” are separate entries in the source; they are usually repeats but may differ in a detail not shown here. Equal entries are not always repeated.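 48-hour exposure; five concentrations; linearly interpolated endpoints. GI50 is the concentration that inhibits growth by half. TGI: total growth inhibition.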

Experiments:
Experiment in all cases: inhibition of tumour cell growth, NCI panel, 48 h
DMS 273 small cell lung = tested on: DMS 273 small cell lung
XF 498 CNS = tested on: XF 498 CNS
DMS 114 small cell lung = tested on: DMS 114 small cell lung
HOP-18 NSCLC = tested on: HOP-18 NSCLC
SNB-78 CNS = tested on: SNB-78 CNS
LXFL 529 NSCLC = tested on: LXFL 529 NSCLC
RXF-631 renal = tested on: RXF-631 renal
MDA-MB-435 = tested on: MDA-MB-435
NCI/ADR-RES ovarian = tested on: NCI/ADR-RES ovarian
T-47D breast = tested on: T-47D breast
PC-3 prostate = tested on: PC-3 prostate

Row | Compound | TGI (DMS 273 small cell lung) [µM] | TGI (XF 498 CNS) [µM] | TGI (DMS 114 small cell lung) [µM] | TGI (HOP-18 NSCLC) [µM] | TGI (SNB-78 CNS) [µM] | TGI (LXFL 529 NSCLC) [µM] | TGI (RXF-631 renal) [µM] | GI50 (MDA-MB-435) | TGI (MDA-MB-435) [µM] | TGI (NCI/ADR-RES ovarian) [µM] | GI50 (T-47D breast) [µM] | GI50 (PC-3 prostate) [µM] | TGI (PC-3 prostate) [µM]
1 | O=C1c2cccc3cc([N+](=O)[O-])cc(c23)C(=O)N1NC1=NCCN1 | > 100 | > 100 | > 100 | > 100 | > 100 | > 100 | > 100 | – | – | – | – | – | –
2 | CC(C)N(C(=O)C12C3C4C5C3C1(C(=O)N(C(C)C)C(C)C)C5(C#N)C42)C(C)C (configuration not stated) | > 100 | > 100 | > 100 | > 100 | > 100 | > 100 | > 100 | – | – | – | – | – | –
3 | CC1(C)OC(=O)[C@@](C)([C@H](O)c2ccccc2)O1 | > 100 | > 100 | > 100 | – | > 100 | > 100 | > 100 | – | – | – | – | – | –
4 | Cc1ccc(C2CC(c3ccc([N+](=O)[O-])cc3)=Nc3ccccc3S2)cc1 (configuration not stated) | – | 55.7 | 59 | > 100 | – | 37.5 | > 100 | – | – | – | – | – | –
5 | N=CCCN(CCC=N)c1ccc(/C=C2\CN(NC(=O)c3ccc(Cl)cc3)C(c3ccccc3)=N2)cc1 | > 100 | – | > 100 | > 100 | > 100 | > 100 | > 100 | – | – | – | – | – | –
6 | C=C[C@@]1(C)CCC2(O)C(CCC3C2(C)CCC[C@@]3(C)COC(=O)CC(=O)OC)C1 (some centres not stated) | – | 40.6 | – | – | 68.9 | 33 | 38.2 | – | – | – | – | – | –
7 | O=C(CC(=O)C(=O)Nc1ccccc1)CC(c1ccccc1)c1c(O)c2ccccc2oc1=O (configuration not stated) | > 100 | – | > 100 | > 100 | – | – | > 100 | – | – | – | – | – | –
8 | Cc1nc2ccccc2c(=O)n1/N=C(\N=Nc1cc(Cl)ccc1Cl)c1cccc(-c2ccco2)c1 | > 100 | – | > 100 | > 100 | – | – | > 100 | – | – | – | – | – | –
9 | O=C(c1ccccc1)C(c1ccccc1)C1(O)C(=O)Nc2ccccc21 (configuration not stated) | > 100 | > 100 | > 100 | – | > 100 | > 100 | > 100 | – | – | – | – | – | –
10 | COc1ccc(C2=Nc3ccccc3SC(C)C2)cc1 (configuration not stated) | > 100 | – | > 100 | – | > 100 | > 100 | > 100 | – | – | – | – | – | –
11 | COc1c(C2=NC(C(C)C)CO2)ccc2ccccc12 (configuration not stated) | > 100 | > 100 | – | – | > 100 | > 100 | > 100 | – | – | – | – | – | –
12 | CCCN(CCCN)/[N+]([O-])=N\O | > 100 | – | > 100 | > 100 | > 100 | > 100 | > 100 | – | – | – | – | – | –
13 | O=C(CC(=O)c1ccc([N+](=O)[O-])cc1)C(=O)Nc1nccs1 | > 100 | > 100 | > 100 | > 100 | > 100 | > 100 | > 100 | – | – | – | – | – | –
14 | C[C@@H](C1CCC2C3C(=CC(=O)[C@@]21C)[C@H](C)[C@]1(CCC(=O)O1)C1OC31)[C@H]1C[C@]2(C)O[C@@](C)(O1)OC2(C)C (some centres not stated) | > 100 | > 100 | > 100 | > 100 | – | > 100 | > 100 | – | – | – | – | – | –
15 | O=S1CSCS1 (configuration not stated) | > 100 | > 100 | > 100 | > 100 | > 100 | > 100 | > 100 | – | – | – | – | – | –
16 | CC(=O)OCCOCNC(=S)N/N=C/c1ccc2ccccc2n1 | > 100 | > 100 | 71.3 | > 100 | > 100 | > 100 | > 100 | – | – | – | – | – | –
17 | COc1cc(=O)oc(/C=C/C=O)c1C | 32.8 | 32.4 | 26.3 | 37.5 | – | 32.4 | 27.9 | – | – | – | – | – | –
18 | Cc1ccc(NC(=O)CC/C(CC(=O)C(C)(C)C)=N/NC(=O)C(N)=O)cc1C | > 100 | > 100 | > 100 | > 100 | > 100 | > 100 | > 100 | – | – | – | – | – | –
19 | COC1C(O)C(C)OC(OC2C(Oc3cccc4c(O)c5c(=O)oc6ccc(C)c7c(=O)oc(c34)c5c67)OC(C)C3O[C@H](c4ccccc4)OC32)C1O (some centres not stated) | 1.59 | 2.21 | 2.69 | 13.6 | 4.73 | 3.18 | 2.37 | 0.309 µM and 0.436 µM | 7.22 | 10.8 | 0.483 | 0.243 | 8.71
20 | CC1(C)CCC[C@@]2(C)C1C[C@H](O)[C@@]1(C)O[C@@](C)([C@H](O)CO)CCC21 (some centres not stated) | > 100 | > 100 | 90.2 | > 100 | > 100 | > 100 | > 100 | – | – | – | – | – | –
21 | N#CNC(N)=NCCO | > 100 | > 100 | > 100 | > 100 | > 100 | > 100 | > 100 | – | – | – | – | – | –
22 | NC(N)=NS(=O)(=O)c1ccc(Nc2c3ccccc3nc3c(C(=O)N4CCN(CCO)CC4)cccc23)cc1 | > 100 | > 100 | > 100 | > 100 | > 100 | > 100 | – | – | – | – | – | – | –
23 | O=C(Cc1nc2ccccc2c(=O)n1-c1c(Cl)cccc1Cl)c1ccncc1 | 40.6 | – | 78.6 | 93.1 | > 100 | > 100 | 63.3 | – | – | – | – | – | –
24 | CC(C)(C)N/N=C(\Cc1occc(=O)c1O)C(=O)Nc1ccc([N+](=O)[O-])cc1[N+](=O)[O-] | > 100 | > 100 | > 100 | > 100 | > 100 | > 100 | > 100 | – | – | – | – | – | –
25 | O=C1c2ccccc2C(=O)C2C1C1C(=O)c3ccccc3C(=O)C21 (configuration not stated) | > 100 | – | > 100 | > 100 | – | > 100 | > 100 | – | – | – | – | – | –
26 | Cc1c(C(=O)CC(=O)C(=O)Nc2c(C(C)C)cccc2C(C)C)[n+](=O)c2ccccc2n1[O-] | 12.1 | 15 | 6.41 | – | 41.3 | 23.4 | 14.4 | – | – | – | – | – | –
